PMC11681892, “Targeting p62 by sulforaphane promotes autolysosomal degradation of SLC7A11, inducing ferroptosis for osteosarcoma treatment” (Redox Biology, 2024)

Key:
p62 [1] = molecular target: T1, p62 (Homo sapiens, UniProt Q13501); experiment: microscale thermophoresis (Monolith NT.[…]); format: binding
T1 construct: gene SQSTM1; p62-mCherry plasmid expressed in HEK293T, RIPA lysate (MST); endogenous p62 in human osteosarcoma cells (CETSA); p62 mutants transfected into 143B cells (DARTS)

p62 [2] = molecular target: T1, p62; experiment: cellular thermal shift assay (CETSA), western blot; format: cell-based; conditions: endogenous p62 in osteosarcoma cells, SFN 20 μM, 2 h, 46-60 °C gradient

T1 sequence (Q13501 2-440): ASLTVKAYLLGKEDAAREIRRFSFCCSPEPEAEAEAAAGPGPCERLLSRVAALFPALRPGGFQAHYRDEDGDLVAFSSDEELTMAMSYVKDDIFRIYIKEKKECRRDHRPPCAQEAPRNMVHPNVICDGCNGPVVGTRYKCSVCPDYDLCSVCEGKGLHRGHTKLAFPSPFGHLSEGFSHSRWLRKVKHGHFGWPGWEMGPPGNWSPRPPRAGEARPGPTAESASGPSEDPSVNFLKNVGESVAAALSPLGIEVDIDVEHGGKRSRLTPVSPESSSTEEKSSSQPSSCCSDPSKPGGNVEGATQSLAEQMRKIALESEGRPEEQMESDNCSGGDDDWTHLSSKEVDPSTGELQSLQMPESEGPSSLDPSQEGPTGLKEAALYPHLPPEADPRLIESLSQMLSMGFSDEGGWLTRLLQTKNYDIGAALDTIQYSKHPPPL

`C[S@@+]([O-])CCCCN=C=S` [Sulforaphane] was tested, and the Kd (p62 [1]) was 15.5 ± 3.93 µM and the “thermal stability (CETSA)” value (p62 [2]) was “SFN significantly enhanced the thermal stability of p62 in OS cells (Fig. 6C)”.
